{"source": "patent US20190374468A1", "about": "“Liposomal Formulations for Allosteric AKT Inhibitors” (Merck Sharp & Dohme Corp., priority 2013, published 2019)", "key": {"[1]": {"assay": "Aqueous solubility of Compound B", "format": "physicochemical"}, "[2]": {"assay": "Visual evaluation of Compound B in the presence of sulfate salts", "format": "physicochemical", "conditions": "1 mg/mL in pH 3.0 citrate buffer with 0.1-1.0 M (NH4)2SO4, 20° C.", "method": "The behavior of Compound B in the presence of sulfate salts was further evaluated visually. Vials containing 1 mg/mL Compound B in pH 3.0 citrate buffer with 0.1 M, 0.25 M, 0.5 M, and 1.0 M, respectively, of (NH4)2SO4 were visually observed at 20° C. […] Solutions became increasingly more viscous with a white/opaque appearance with increasing amounts of ammonium sulfate."}}, "data": [{"smiles": "Cl.NC1(c2ccc(-c3nc4ccn5c(=O)[nH]nc5c4cc3-c3ccccc3)cc2)CCC1", "note": "[Compound B, 8-[4-(1-aminocyclobutyl)phenyl]-9-phenyl[1,2,4]triazolo[3,4-f]-1,6-naphthyridin-3-ol]", "values": [{"measurement": "solubility", "setting": "[1]; 0.1 M carbonate buffer, aqueous buffer, pH 8.6, 0.1M Carbonate", "result": 0.0007, "unit": "mg/mL"}, {"measurement": "solubility", "setting": "[1]; 0.1 M citrate buffer, aqueous buffer, pH 2.8, 0.1M Citrate", "result": 10.6, "unit": "mg/mL"}, {"measurement": "solubility", "setting": "[1]; 0.1 M citrate buffer, aqueous buffer, pH 3.9, 0.1M Citrate", "result": 0.17, "unit": "mg/mL"}, {"measurement": "solubility", "setting": "[1]; 0.1 M citrate buffer, aqueous buffer, pH 5.0, 0.1M Citrate", "result": 0.059, "unit": "mg/mL"}, {"measurement": "solubility", "setting": "[1]; 0.1 M phosphate buffer, aqueous buffer, pH 5.6, 0.1M Phosphate", "result": 0.14, "unit": "mg/mL"}, {"measurement": "solubility", "setting": "[1]; 0.1 M phosphate buffer, aqueous buffer, pH 6.9, 0.1M Phosphate", "result": 0.036, "unit": "mg/mL"}, {"measurement": "solubility", "setting": "[1]; simulated gastric fluid, pH 2.1, 0.01N HCl", "result": 4.23, "unit": "mg/mL"}, {"measurement": "solubility", "setting": "[1]; un-buffered aqueous medium, water, pH 4.1, Un-buffered", "result": 7.46, "unit": "mg/mL"}, {"measurement": "time to flocculation after addition of ammonium sulfate", "setting": "[2]", "result": "< 30", "unit": "min"}]}]}
